From patent US11369584B2, “Andrographolide derivatives and method of using the same for treatment or prevention of fibrosis” (Zhengzhou University, priority 2017, dated 2022)

Key:
[1] = test system: SD rats with liver fibrosis induced by CCl4; assay: CCl4-induced liver fibrosis in SD rats; format: in vivo; conditions: ELISA
Procedure: SD rats were fed ad libitum for 3 days, and then randomly divided into normal group and model group. Subcutaneous injection of 40% CCl4 of soybean oil to the rats of model group for the first time. Following an initial dose of 4 mL/kg, each subsequent dose was 2 mL/kg, 2 times every week. The corresponding volumes of soy oil were injected subcutaneously to the normal group. After 4 weeks of modeling, except for the normal group, other rats were weighed individually and then randomly divided into eight rats per group. The dosages of andrographolide, oxymatrine, silibinin and the compound A of the disclosure were both 20 mg/kg, and the doses of other compounds were the same molar mass as compound A, and the model group and the normal group were given an equal amount of 0.5% CMC-Na. During the 5th and 6th weeks of the experiment, modeling and administration were carried out simultaneously, furthermore, the modeling was stopped at the 7th and 8th weeks, while the administered continued to carry out. Drugs were administrated by gavage on an empty stomach in the morning every day, and were given daily for 10 days followed by 1-day break. The bedding of the rats should be replaced at the first 8 hours of the last gavage, strictly fasting with nothing but water. After 1 h of administration, an anesthetic of 3% pentobarbital sodium (2 mL/kg) was intraperitoneally injected. […] Image-Pro Plus software performed semi-quantitative analysis of fibrosis histology on the photographs of Masson stained sections. […] The expression of α-SMA (a marker of the degree of HSC activation) in liver tissue was evaluated by immunohistochemistry, and the positive expression was quantified using Image-Pro Plus, the results were shown in FIGS. 6 and 7. Data were processed and analyzed using SPSS 17.0 statistical software. Data were expressed as mean±standard deviation (X±S); There were significant differences between groups when P<0.05. The levels of LN, C-I, PC-III and C-IV in the serum of the animals were determined by ELISA using the compound H of the disclosure as a representative. Data were processed and analyzed using SPSS 17.0 statistical software. Data were expressed as mean±standard deviation (X±S); There were significant differences between groups when P<0.05. The level of IL-6 and TNF-α in the serum of the animal was determined by ELISA using the compound H of the disclosure as a representative, the results were shown in FIGS. 20 and 21. Data were processed and analyzed using SPSS 17.0 statistical software. Data were expressed as mean±standard deviation (X±S); There were significant differences between groups when P<0.05. The level of SOD and MDA in the liver tissue of the animal was determined by the compound H of the disclosure, the results were shown in FIGS. 22 and 23. […]

[2] = test system: human proximal tubular epithelial cells HK-2; assay: TGF-β1-induced conversion of HK-2 cells to mesenchymal cells (morphological observation); format: cell-based; conditions: TGF-β1 5 ng/mL, 48 h, test concentrations 0.08-[…]
Procedure: Human proximal tubular epithelial cells HK-2 (provided by the China Center for Type Culture Collection) were used to study the in vitro anti-renal fibrosis effect of the compounds of the disclosure in comparison with andrographolide (AD). HK-2 cells were cultured in DMEM-F12 medium containing 10% (V/V) fetal bovine serum, 100 μg/mL streptomycin, and 100 IU/mL penicillin respectively, and then incubated in an incubator at 5% CO2 and 37° C., humidified atmosphere. HK-2 cells in logarithmic growth phase were digested with 0.25% (w/v) trypsin and 0.02% EDTA (W/V), and diluted into 5.0×10^6/mL cell suspension with DMEM-F12 medium containing 10% (v/v) fetal bovine serum. After each 96-well plate was filled with 200 μL cell suspension, the plates were placed in an incubator for 24 h in order to generate a single layer of cells. The original medium was discarded, and the cells were washed twice with PBS, and the medium without serum was added. After 24 h of re-synchronized, 200 μL of DMEM-F12 medium containing different concentrations of the test compound and the stimulating factor TGF-β1 (5 ng/mL) was added. Each treatment was repeated in 4 wells and control group was set up. After 48 h of incubation, the cells were photographed under a microscope.

Compound: C=C1CC[C@@H]2[C@](C)(CO)[C@H](O)CC[C@@]2(C)[C@@H]1C/C=C1/C(=O)OC[C@H]1O [AD, andrographolide]
- content of C-I in liver tissue [1]: significantly reduced
- content of C-IV in the serum [1]: significantly reduced
- Inhibitory effect ([2]; Table 1A): Medium
- Optimal effective dose range ([2]; Table 1A): 0.31 to 1.25 µM
- Inhibitory effect ([2]; Table 1B): Medium
- Optimal effective dose range ([2]; Table 1B): 0.31 to 1.25 µM

Compound: O=C1CCC[C@@H]2[C@H]3CCC[N+]4([O-])CCC[C@@H](CN12)[C@@H]34 (some centres unmarked) [Oxymatrine, oxymatrine]
- content of C-I in liver tissue [1]: significantly reduced
- content of C-IV in the serum [1]: significantly reduced
